Measurements reported in patent publication US9510596B2, “Binary pesticidal and fungicidal mixtures” (BAYER CROPSCIENCE AG, priority 2012, dated 2016).

Tested on: Phakopsora pachyrhizi
Test: Phakopsora test (soybean)/seed treatment
Assay type: in vivo
Settings: greenhouse, infected leaf area per plant
Method: The test is performed under greenhouse conditions.
Soy bean seeds, treated with the active compound or compound combinations, solved in N-methyl-2-pyrrolidon and diluted with water to the desired dosages, were sown in 6*6 cm pots containing 4 cm of a 1:1 mix of steamed field soil and sand.
The plants were grown at 22° C. and 90% relative humidity in a greenhouse chamber. 21 days old plants were inoculated with an aqueous spore suspension of the causal agent of soybean rust (Phakopsora pachyrhizi) and stay for 24 h without light in an incubation cabinet at approximately 24° C. and a relative atmospheric humidity of 95%. The plants remain in the incubation cabinet at approximately 24° C. and a relative atmospheric humidity of approximately 80% and a day/night interval of 12 h.
Assessment consisted of evaluation of infected leaf area per plant. 0% means an efficacy which corresponds to that of the control, while an efficacy of 100% means that no disease is observed.

For `CNC(=O)c1cc(C#N)cc(C)c1NC(=O)c1cc(Br)nn1-c1ncccc1Cl` [2.2, Cyantraniliprole, reference compound], the “Efficacy in % found*” value (application rate 0.5 ppm a.i.) was 0%.

For `CNC(=O)c1cc(C#N)cc(C)c1NC(=O)c1cc(Cn2nnc(C(F)(F)F)n2)nn1-c1ncccc1Cl` [2.5, 1-(3-chloropyridin-2-yl)-N-[4-cyano-2-methyl-6-(methylcarbamoyl)phenyl]-3-{[5-(trifluoromethyl)-2H-tetrazol-2-yl]methyl}-1H-pyrazole-5-carboxamide], the “Efficacy in % found*” value (application rate 2.5 ppm a.i.) was 13%.

In the case of `CC1CC(C)(C)c2cccc(NC(=O)c3cn(C)nc3C(F)F)c21` (stereo not drawn) [(I-1), 3-(difluoromethyl)-1-methyl-N-(1,1,3-trimethyl-2,3-dihydro-1H-inden-4-yl)-1H-pyrazole-4-carboxamide], the “Efficacy in % found*” value (application rate 25 ppm a.i., 0% = control, 100% = no disease) is reported as 25%.
